Test results as given in the NIST ThermoML archive (doi:10.1016/j.fluid.2011.02.020).

Test: mn = molality of the nth substance listed, in mol/kg
Details: 298.15 K, 101 kPa, Liquid, Vibrating tube method

CCCCCCC(F)(F)C(F)(F)C(F)(F)C(F)(F)F [1,1,1,2,2,3,3,4,4-nonafluorodecane] + CCCCCCCC
Details | molar volume [m3/mol]
m1 = 0.0465 | 0.0002496
m1 = 0.0608 | 0.0002501
m1 = 0.0703 | 0.0002498
m1 = 0.1003 | 0.0002498
m1 = 0.1403 | 0.0002498
m1 = 0.1663 | 0.0002493
m1 = 0.1689 | 0.0002492
m1 = 0.2127 | 0.0002497

CCCCCCCCC(F)(F)C(F)(F)C(F)(F)C(F)(F)F [1,1,1,2,2,3,3,4,4-nonafluorododecane] + CCCCCCCC
Details | molar volume [m3/mol]
m1 = 0.0685 | 0.0002816
m1 = 0.0996 | 0.0002815
m1 = 0.1061 | 0.0002817
m1 = 0.1259 | 0.0002815
m1 = 0.1271 | 0.0002817
m1 = 0.1522 | 0.0002818
m1 = 0.1885 | 0.0002815
m1 = 0.2032 | 0.0002815

CCCCCC(F)(F)C(F)(F)C(F)(F)C(F)(F)F [1,1,1,2,2,3,3,4,4-nonafluorononane] + CCCCCCCC
Details | molar volume [m3/mol]
m1 = 0.0527 | 0.0002338
m1 = 0.0601 | 0.0002337
m1 = 0.0947 | 0.0002337
m1 = 0.1337 | 0.0002337
m1 = 0.1437 | 0.0002336
m1 = 0.1755 | 0.0002334
m1 = 0.1914 | 0.0002334
m1 = 0.2141 | 0.0002334

FC(F)(F)C(F)(F)C(F)(F)C(F)(F)C(F)(F)C(F)(F)C(F)(F)C(F)(F)C(F)(F)F [eicosafluorononane] + CCCCCCCC
Details | molar volume [m3/mol]
m1 = 0.0532 | 0.0003069
m1 = 0.0565 | 0.000307
m1 = 0.0714 | 0.0003073
m1 = 0.0832 | 0.0003067
m1 = 0.1105 | 0.000307
m1 = 0.1219 | 0.0003062
m1 = 0.1488 | 0.0003058
m1 = 0.1513 | 0.0003065

FC(F)(F)C(F)(F)C(F)(F)C(F)(F)C(F)(F)C(F)(F)C(F)(F)C(F)(F)F [octadecafluorooctane] + CCCCCCCC
Details | molar volume [m3/mol]
m1 = 0.0362 | 0.0002822
m1 = 0.0617 | 0.0002816
m1 = 0.0923 | 0.0002798
m1 = 0.1157 | 0.0002803
m1 = 0.1445 | 0.0002792
m1 = 0.1585 | 0.0002786
m1 = 0.1808 | 0.0002784
m1 = 0.2115 | 0.0002788

FC(F)(F)C(F)(F)C(F)(F)C(F)(F)C(F)(F)C(F)(F)F [perfluorohexane] + CCCCCCCC
Details | molar volume [m3/mol]
m1 = 0.088 | 0.0002294
m1 = 0.1035 | 0.0002312
m1 = 0.131 | 0.0002293
m1 = 0.1624 | 0.0002278
m1 = 0.1833 | 0.0002292
m1 = 0.2156 | 0.0002299
m1 = 0.2594 | 0.0002276
m1 = 0.268 | 0.0002308
m1 = 0.304 | 0.0002288
m1 = 0.3424 | 0.0002285
m1 = 0.3621 | 0.00023
m1 = 0.4051 | 0.0002288
